For the experiment, the system named is Triticum aestivum (TRZAS). The experiment in a line: Drought stress test on crop plants, spray application in greenhouse, visual damage rating. In kind it is in vivo. The conditions noted are these: mean of three results. Here is the method:
Seeds of monocotyledonous and dicotyledonous crop plants were placed in sandy loam in wood-fiber pots, covered with soil and cultivated in a greenhouse under good growth conditions. The test plants were treated at the early leaf stage (BBCH10-BBCH13). To ensure uniform water supply before commencement of stress, the potted plants were supplied with the maximum amount of water immediately beforehand by dam irrigation and, after application, transferred in plastic inserts in order to prevent subsequent, excessively rapid drying. The inventive compounds, formulated in the form of wettable powders (WP), wettable granules (WG), suspension concentrates (SC) or emulsion concentrates (EC), were sprayed onto the green parts of the plants as an aqueous suspension at an equivalent water application rate of 600 l/ha with addition of 0.2% wetting agent (agrotin). Substance application was followed immediately by stress treatment of the plants (cold or drought stress). For cold stress treatment, the plants were kept under the following controlled conditions: Drought stress was induced by gradual drying out under the following conditions: “day”: 14 hours with illumination at 26° C. “night”: 10 hours without illumination at 18° C. The duration of the respective stress phases was guided mainly by the state of the untreated, stressed control plants and thus varies from crop to crop. It was ended (by re-irrigating or transfer to a greenhouse with good growth conditions) as soon as irreversible damage is observed on the untreated, stressed control plants. In the case of dicotyledonous crops, for example oilseed rape and soya, the duration of the drought stress phase was between 3 and 5 days, in the case of monocotyledonous crops, for example wheat, barley or corn, between 6 and 10 days. The duration of the cold stress phase varied between 12 and 14 days. The end of the stress phase was followed by an approx. 5-7-day recovery phase, during which the plants were once again kept under good growth conditions in a greenhouse. In order to rule out any influence of the effects observed by any fungicidal action of the test compounds, it was additionally ensured that the tests proceed without fungal infection and without infection pressure. After the recovery phase had ended, the intensities of damage were rated visually compared to untreated, unstressed controls of the same age (in the case of drought stress) or the same growth stage (in the case of cold stress). The intensity of damage was first assessed as a percentage (100%=plants have died, 0%=like control plants). These values were then used to calculate the efficacy of the test compounds (=percentage reduction in the intensity of damage as a result of substance application) by the following formula: [formula] EF: efficacy (%) DVus: damage value of the untreated, stressed control DVts: damage value of the plants treated with test compound The tables below list mean values in each case from three results of the same test. Effects of selected compounds of the formula (I) under drought stress: TRZAS=Triticum aestivum

A value given as a limit tells only on which side of the number the result lay.

Take `NC(=O)c1cccc2[nH]c(C(F)(F)C(F)(F)F)nc12` [1-2, 2-(pentafluoroethyl)-1H-benzimidazole-4-carboxamide]: for the setting “25 g/ha”, the “EF (TRZAS), efficacy = percentage reduction in the intensity of damage” value is above 5%.
Take `NC(=O)c1cccc2[nH]c(C(F)(F)C(F)(F)C(F)(F)F)nc12` [1-17]: the “EF (TRZAS), efficacy = percentage reduction in the intensity of damage” value (250 g/ha) is above 5%.

(Values after patent US20110218103A1, “Fluoroalkyl-substituted 2-amidobenzimidazoles” (BAYER CROPSCIENCE AG, priority 2010, published 2011).)
